Assay results from the supplement of paper PMC10307832.

What was measured:
Assay in all cases: relative viability (nuclei count vs DMSO), 5 days (fraction); higher = more cells survive
BAY61-3606 = compound: COC1=C(C=C(C=C1)C2=CC3=NC=CN3C(=N2)NC4=C(C=CC=N4)C(=O)N)OC [BAY61-3606]
Procedure, shortened: (§1)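 Only plates meeting two conditions passed: control CV below 25% and at least one doubling. Lung cancer cell lines, kept overnight at 37 °C in 1536-well plates, were pinned with five library-drug doses (not always all listed) √10 apart on vehicle-anchored plates and grown 5 days without medium change. A one-step fix, permeabilisation and Hoechst stain preceded 4× imaging and MetaXpress nuclear counting. Viability equals treated-well nuclei divided by vehicle-well nuclei, as the median over plates.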

Doxorubicin = compound: COc1cccc2c1C(=O)c1c(O)c3c(c(O)c1C2=O)C[C@@](O)(C(=O)CO)C[C@@H]3O[C@H]1C[C@H](N)[C@H](O)[C@H](C)O1 [Doxorubicin]
Procedure, shortened: as §1

BAY61-3606 + Alpelisib = compound: COC1=C(C=C(C=C1)C2=CC3=NC=CN3C(=N2)NC4=C(C=CC=N4)C(=O)N)OC [BAY61-3606] + Cc1nc(NC(=O)N2CCC[C@H]2C(N)=O)sc1-c1ccnc(C(C)(C)C(F)(F)F)c1 [Alpelisib] (partner 2 µM)
Procedure, shortened: (§2)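 Lung cancer cell lines in 1536-well plates got either a single drug or a fixed anchor-drug dose together with five library-drug doses (not always all listed) in √10 steps, by pin tool, on the day after seeding. Nuclei were counted after 5 days, and relative viability is the treated-to-vehicle ratio of nuclei counts. Values are medians of duplicate plates.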

BAY61-3606 + Pictilisib = compound: COC1=C(C=C(C=C1)C2=CC3=NC=CN3C(=N2)NC4=C(C=CC=N4)C(=O)N)OC [BAY61-3606] + CS(=O)(=O)N1CCN(Cc2cc3nc(-c4cccc5[nH]ncc45)nc(N4CCOCC4)c3s2)CC1 [Pictilisib] (partner 1 µM)
Procedure, shortened: as §2

## UMC-11
BAY61-3606; 0.02 µM
  relative viability: 1.1
BAY61-3606; 0.06325 µM
  relative viability: 1.05
BAY61-3606; 0.2 µM
  relative viability: 0.955
BAY61-3606; 0.6325 µM
  relative viability: 1.06
BAY61-3606; 2 µM
  relative viability: 0.991
Doxorubicin; 0.001 µM
  relative viability: 0.974
Doxorubicin; 0.003162 µM
  relative viability: 1.06
Doxorubicin; 0.01 µM
  relative viability: 0.913
Doxorubicin; 0.03162 µM
  relative viability: 0.692
Doxorubicin; 0.1 µM
  relative viability: 0.715
BAY61-3606 + Alpelisib; first compound 0.02 µM
  relative viability: 1.01
BAY61-3606 + Alpelisib; first compound 0.06325 µM
  relative viability: 1.09
BAY61-3606 + Alpelisib; first compound 0.2 µM
  relative viability: 1.08
BAY61-3606 + Alpelisib; first compound 0.6325 µM
  relative viability: 0.973
BAY61-3606 + Alpelisib; first compound 2 µM
  relative viability: 0.912
BAY61-3606 + Pictilisib; first compound 0.02 µM
  relative viability: 0.851
BAY61-3606 + Pictilisib; first compound 0.06325 µM
  relative viability: 0.799
BAY61-3606 + Pictilisib; first compound 0.2 µM
  relative viability: 0.527
BAY61-3606 + Pictilisib; first compound 0.6325 µM
  relative viability: 0.922
BAY61-3606 + Pictilisib; first compound 2 µM
  relative viability: 0.622
